These results are taken from patent US20260007617A1, “METHOD FOR TREATING RENAL CELL CARCINOMA OR CANCER” (Lantern Pharma Inc., priority 2023, published 2026).

SMILES strings stand for the structures. pIC50: −log10 of the molar value.

Common to all, as to type: cell-based
One test deals with SN12C. In words: cell viability IC50 over 72 hours, SN12C kidney cell line. The conditions noted are these: Homo sapiens. Here is the method: (§1) FIG. 4 details the sensitivity of various cell lines to LP-184, showing cell death over 72 hours. Sensitivity, gauged by IC50 data, reflects how effectively a substance can inhibit a particular biological or biochemical function. […] This IC50 value, indicating the concentration needed to reduce cell viability by 50%, is key to understanding the compound's efficacy and the temporal response of the cells to the substance. Such analyses are vital for new drug development and therapeutic approaches, offering important insights into how cells react to different compounds over time.
(§2) Sensitivity, gauged by IC50 data, reflects how effectively a substance can inhibit a particular biological or biochemical function. […] This IC50 value, indicating the concentration needed to reduce cell viability by 50%, is key to understanding the compound's efficacy and the temporal response of the cells to the substance. Such analyses are vital for new drug development and therapeutic approaches, offering important insights into how cells react to different compounds over time.

In a further test the test system is CAK11. The test is described as follows: cell viability IC50 over 72 hours, CAK11 kidney cell line. As to the method: as §1, §2
Another test deals with ACHN. In words: cell viability IC50 over 72 hours, ACHN kidney cell line. The following applies: Homo sapiens. As to the method: as §1, §2
The subject of a further test is TK10. In words: cell viability IC50 over 72 hours, TK10 kidney cell line. The following applies: Homo sapiens, TK-10. As to the method:
as §1, §2

The next test has as its system A498. In words: cell viability IC50 over 72 hours, A498 kidney cell line. The following applies: for pIC50: Homo sapiens, A498 cell line, Kidney, 72 hours. Here is the method: as §1, §2
A further test relates to X7860. The test is described as follows: cell viability IC50 over 72 hours, X7860 kidney cell line. Here is the method: as §1, §2
A further test has as its system 769P. In words: sensitivity of renal cell line 769P to LP-184. The conditions noted are these: 769P cell line. From the text:
(§3) By contrast, the RPE1 cell lines acted as a negative control, showcasing a distinct reaction to the treatment.

A further test deals with UO31. In words: cell viability IC50 over 72 hours, UO31 kidney cell line. The conditions noted are these: Homo sapiens, UO-31. Here is the method: as §1, §2
The subject of a further test is 786O. The test is described as follows: sensitivity of renal cell line 786O to LP-184. The conditions noted are these: 786O cell line.
Description: as §3

Another test deals with RXF393. In words: cell viability IC50 over 72 hours, RXF393 kidney cell line. The following applies: for pIC50: Homo sapiens, RXF 393, RXF393 cell line, Kidney, 72 hours. As to the method: as §1, §2

For the compound `CC1=C(CN(O)C(N)=O)C2=C(C)C3(CC3)[C@@](C)(O)C(=O)C2=C1` [LP-184, (−)-hydroxyureamethyl acylfulvene], the negative-log IC50 (pIC50) with SN12C is 6.46; in the test on CAK11, 6.55; with ACHN, 6.65; in the test with TK10 it was 6.50; with A498, 6.75; in the test on X7860, 6.48. Further, the pIC50 was 6.75 in the test with UO31 and 6.82 in the test on RXF393. Besides, the “sensitivity of cell line (in words)” value with A498 (A498 clear cell renal carcinoma cell line) is recorded as “high sensitivity”; in the test on 769P, “low sensitivity”; in the test with 786O, “low sensitivity”; with RXF393 (RXF393 clear cell renal carcinoma cell line), “high sensitivity”.
Regarding `CC1=C(CN(O)C(N)=O)C2=C(C)C3(CC3)[C@](C)(O)C(=O)C2=C1` [LP-284, (+)-hydroxyureamethyl acylfulvene], the pIC50 in the test on SN12C was 5.58; with CAK11 it was 5.72; with ACHN, 5.95; in the test with TK10, 5.70; with A498 it was 5.87; in the test on X7860, 5.65. For the same compound, the negative logarithm of the IC50 (pIC50) in the test on UO31 was 6.60; in the test with RXF393, 6.48.
